Data as given in patent publication US5409946A, “Isoxazole, isothiazole and pyrazole compounds that enhance cognitive function” (Abbott Laboratories, priority 1993, dated 1995).
pKi: −log10 of the molar value. Entries after “also recorded” stand apart in the source; their conditions may differ. Where two headings read alike, the source gives them in different places.

Assays:
1-4 Hz slow wave EEG = 1-4 Hz slow wave EEG amplitude; type: in vivo, male Wistar rats
[1] = biological target: neuronal nicotinic receptors; assay: Displacement of [3H]-MCC or [3H]-cytisine from neuronal nicotinic receptors, whole rat brain membranes; type: binding
Procedure: Binding of [^3 H]-methylcarbamylcholine ([^3 H]-MCC) or [^3 H]-cytisine ([^3 H]-CYT) to nicotinic receptors was accomplished using crude synaptic membrane preparations from whole rat brain (Snyder and Enna, Brain Research, 1975, 100:81). Washed membranes were stored at -80° C. prior to use. Frozen aliquots were slowly thawed and resuspended in 20 volumes of buffer (containing: 120 mM NaCl, 5 mM KCl, 2 mM MgCl2, 2 mM CaCl2 and 50 mM Tris-Cl, pH 7.4 @4° C). After centrifuging at 20,000 X g for 15 minutes, the pellets were resuspended in 30 volumes of buffer. Homogenate (containing 125-150 μg protein) was added to triplicate tubes containing concentrations of test compound and [^3 H]-MCC (3 nM) in a final volume of 500 μL. Samples were incubated for 60 minutes at 4° C., then rapidly filtered through Whatman GF/B filters presoaked in 0.5% polyethylimine using 3×4 mL of ice-cold buffer. Alternately, homogenate and test compound were incubated for 75 min with [^3 H]-CYT (1.3 nM), then rapidly filtered, as described above. The filters are counted in 4 mL of Ecolume® (ICN). […] IC50 values were determined with the ALLFIT nonlinear least squares curve-fitting program and IC50 values were converted to Ki values using the Cheng and Prusoff correction (Ki =IC50 /(1+[ligand]/Kd of ligand)). Alternately, data were expressed as a percentage of the total specific binding.

spike wave discharges = assay: Attenuation of petit mal absence-like spike wave discharges (EEG); type: in vivo, male Wistar rats; conditions: for Total spike wave duration: p < 0.05
Procedure: Animals: Male albino rats of the Wistar strain (CAMM Research) were maintained on a 12:12 hour light-dark cycle and individually housed throughout these experiments. They were fed standard rodent diet with food and water provided ad libitum.
EEG Recordings: To record spike wave discharges, rats were surgically implanted with permanently affixed EEG electrodes over the frontal codex using previously described techniques (Radek, Brain Res., 1993, in press). After at least a ten day recovery from this surgery, EEG recordings were made inside darkened sound attenuating chambers. Rats were allowed to move freely within the chambers and computerized activity monitors recorded animal motion during these studies. Only those rats that express spike wave discharges, as identified from preliminary recordings, were used to test the effects of nicotinic agents.
Drug studies: EEG recordings were obtained from each rat for a period of 20 minutes of total waking immobility immediately after administration of drug, or a drug-free control solution. Immobility was characterized as the absence of infrared beam interruptions from the activity monitor system. Spike wave activity was identified as regular 6-10 Hz complexes with amplitudes of 0.4 to 1.0 mV. The total spindling duration for 20 minutes of waking immobility was calculated by determining the length (in seconds) of each spike wave burst, and adding each of these times together to obtain a total spindle time for the recording session. Each rat was administered the control solution and one or two doses of the test compounds and each dosing was given at least 48 hours after the previous treatment.
The compound of Example 2 was dissolved in saline to the desired concentration.

[2] = system: retention of the avoidance response; assay: Inhibitory avoidance test; type: in vivo
Description: The inhibitory (or sometimes called passive) avoidance (IA) test is a well-accepted animal model for learning/memory and is widely used to assess the activity of novel cognition enhancers in enhancing cognitive function (Wanibuchi et al., Eur. J. Pharmacol., 1990, 187:479). According to this test, animals are placed in the illuminated (12×14×11 cm) portion of a two-chambered box, from which they enter through a guillotine door to the larger (24×13.5×12 cm) dark compartment of the box. Entry to the dark compartment is accompanied by a mild (0.35 mA), brief (2 seconds) footshock. Initial latencies to cross are recorded, with an imposed 60 second ceiling. Following a 24 hour retention interval, animals are returned to the illuminated chamber, and latency to return to the dark compartment is again recorded, with a ceiling of 180 seconds. No footshock is administered on the test day.
Twelve animals were used in each group.

muscarinic receptors = type: binding, rat; conditions: Table 2
Procedure: The potencies of ligand binding at central muscarinic binding sites were determined by analysis of competition with the specific muscarinic receptor radioligand [^3 H]-quinuclidinyl benzilate ([^3 H]-QNB). […] Competition between various concentrations of putative nicotinic ligand compounds and 0.2 nM [^3 H]-QNB was performed at 25° C. in an assay volume of 1 mL. After 75 minutes, the bound radioligand was separated by vacuum filtration on Whatman GF/B glass fiber filters. Non-specific binding was defined as radioactivity remaining in the presence of 10 μM atropine. Competition curves were analyzed for Ki values as described above for binding to the nicotinic receptor.

ethanol-induced narcosis = type: in vivo, male CD1 mice; conditions: post-treatment
Description: It is known that administration of ethanol to mice induces a state of narcosis in the animals. […] It is also known that certain compounds can modify the narcotic effect of ethanol in this model.
Animals: Male CD1 mice (Charles-River Co., Portage, Mich.) weighing 25-30 g were used in the experiments. Upon arrival they were caged in groups of 14 and allowed to acclimatize to laboratory conditions for one week before the beginning of the studies. They were fed standard rodent diet with food and water ad libitum.
Duration of sleep time: Mice received intraperitoneal (i.p.) injections of ethanol and either saline or one of the drug treatments. Upon loss of the righting reflex, a timer was started to record the duration of the sleep time until the reflex was recovered. Two types of experiments were conducted to study the effect of drugs before (pre-treatment) or after (post-treatment) the injection of the narcotic dose of ethanol. In the pre-treatment experiments the drugs were injected i.p., 15 minutes before ethanol. In the post-treatment experiments the drugs were administered i.p., 1 minute after the animals lost the righting reflex, which was approximately 5 minutes after administration of ethanol.
Drugs: Ethanol was prepared as a 20% v/v (16% w/v) solution in saline. Based on previous studies, a dose of 87 mmol/kg (4 g/kg) was selected as the narcotic dose. RO 15-4513, the benzodiazepine receptor inverse agonist discussed in the Background section, was purchased from RBI (Natick, Mass.). It was dissolved in saline solution with Tween-80 and ultrasonically homogenized for 3 minutes. […] The compounds of Examples 2 and 4, both novel neuronal nicotinic receptor ligands according to the present invention, were also dissolved in saline to the desired concentrations.

SMILES: Cc1cc([C@@H]2CCCN2C)on1.O=C(O)C(=O)O [Example 2, 3-Methyl-5-(1-methyl-2(S)-pyrrolidinyl)-isoxazole oxalate salt]
- 1-4 Hz amplitude (1-4 Hz slow wave EEG; 1.9 μmol/kg i.p.): 27.3 ± 5.0 μVolts
- effect on low frequency (1-4 Hz) EEG slow-wave patterns (1-4 Hz slow wave EEG; i.p.): does not affect those patterns
- pKi ([1]; Table 1, oxalate salt, read-out: Nicotinic Receptor Ki): 8.30
- pKi ([1]; Table 2, read-out: Nicotinic Ki): 8.30
- Total spike wave duration (spike wave discharges; Table 8, 1.9 μmol/kg i.p.): 26.7 ± 9.2 s
- Total spike wave duration (spike wave discharges; Table 8, 6.2 μmol/kg i.p.): 33.1 ± 10.2 s
- Total spike wave duration (spike wave discharges; Table 9, 10 μmol/kg p.o.): 25.6 ± 7.5 s
- Total spike wave duration (spike wave discharges; Table 11, 6.2 μmol/kg i.p.): 8.2 ± 3.8 s
- effect on incidence of spike wave discharges (spike wave discharges; i.p., 20 min waking immobility, p<0.05 where significant): significantly lowered the incidence of spike wave discharges
- effect on incidence of spike wave discharges (spike wave discharges; oral, 10.0 μmol/kg, p<0.05): significantly lowered the incidence of spike wave discharges
- equally efficacious at fraction of the dose of (-)-nicotine in IA ([2]; dose relative to (-)-nicotine): 1/17
- Inhibitory Avoidance (IA) result ([2]; i.p. 15 min before training, retention at 24 h, p<0.05, oxalate salt): significantly facilitated the retention of the avoidance response; also recorded: significant
- pKi (muscarinic receptors): 3.80
- Sleeping time (ethanol-induced narcosis; 0.062 μmol/kg i.p.): 91 ± 20 % of controls
- Sleeping time (ethanol-induced narcosis; 0.19 μmol/kg i.p.): 68 ± 15 % of controls
- Sleeping time (ethanol-induced narcosis; 0.62 μmol/kg i.p.): 51 ± 8 % of controls
- effect of post-treatment on ethanol-induced narcosis (ethanol-induced narcosis; i.p., p<0.05, one-tailed t test): significantly reduced
